{"source": "patent US20230158084A1", "about": "“PROBIOTICS, METABOLITES, AND USES THEREOF” (California Institute of Technology, priority 2018, published 2023)", "key": {"[1]": {"system": "pyramidal neurons in the L5 of the mPFC", "test": "Electrophysiology in acute slices from treated BTBR mice (mEPSC, mIPSC, excitability)", "format": "in vivo, mouse", "details": "BTBR mice given 10 mM in drinking water starting 3-4 weeks of age", "protocol": "FIGS. 8A-E are a series of graphs illustrating effects of microbial metabolites on brain activity of mice in accordance with some embodiments herein. Mice were orally administered 10 mM Taurine or 5AV in drinking water starting 3-4 weeks of age mating, and throughout their lifetime. FIG. 8A illustrates effects on amplitude and frequency of mEPSCs in pyramidal neurons in the L5 of the mPFC in acute slices from BTBR mice treated with 5AV, Taurine, or control. FIG. 8B illustrates effects on amplitude and frequency of mIPSCs in pyramidal neurons in the L5 of the mPFC in acute slices from BTBR mice treated with 5AV, Taurine, or control. Hypotheses for FIGS. 8A-B were tested by ANOVA on trimmed means (10%) and subsequent post-hoc tests. FIG. 8C illustrates effects on excitability of pyramidal neurons in the L5 of the mPFC in acute slices from BTBR mice treated with 5AV, Taurine, or control in response to step-wise injection current, as measured by the number of action potential spikes. 2-way ANOVA. BTBR mice were orally administered 10 mM Taurine or 5AV in drinking water starting 3-4 weeks of age mating, and throughout their lifetime, and effects on the brain were observed. FIG. 8A illustrates effects on amplitude and frequency of mEPSCs in pyramidal neurons in the L5 of the mPFC in acute slices from BTBR mice treated with 5AV, Taurine, or control. FIG. 8B illustrates effects on amplitude and frequency of mIPSCs in pyramidal neurons in the L5 of the mPFC in acute slices from BTBR mice treated with 5AV, Taurine, or control. Hypotheses for FIGS. 8A-B were tested by ANOVA on trimmed means (10%) and subsequent post-hoc tests. FIG. 8C illustrates effects on excitability of pyramidal neurons in the L5 of the mPFC in acute slices from BTBR mice treated with 5AV, Taurine, or control in response to step-wise injection current, as measured by the number of action potential spikes. 2-way ANOVA."}, "BTBR mice [2]": {"system": "BTBR mice", "test": "ASD-related behaviors overall (marble burying, direct social interaction, open field) in BTBR mice", "format": "in vivo, mouse", "details": "for ASD-related behaviors, administration post weaning: BTBR mice, 10 mM in drinking water to juvenile mice starting 3-4 weeks of age through adulthood; for ASD-related behaviors / symptoms, prenatal administration: BTBR mouse model, 10 mM orally in drinking water from before mating (conception) through adulthood", "protocol": "FIGS. 5A-D are a series of drawings illustrating that differential metabolites impact ASD-relevant behaviors in SPF mice in accordance with some embodiments herein. FIG. 5A: The abundance of select metabolites in the offspring microbiome is correlated with behavior of male offspring. Spearman correlation between the microbiome and mouse behavior, by donor (See FIGS. 1A-0). […] Color scale denotes Spearman ρ. […] Groups of mice were orally administered 10 mM Taurine or 5AV in drinking water before mating, and throughout their lifetime. Offspring were tested by marble burying, direct social interaction, and open field tests, and compared to untreated vehicle controls. Results are aggregated from 2 independent experiments. NControl=42, […]=52, NTaurine=36. Bar plots denote mean and S.E.M. Hypothesis on differences in means were tested by ANOVA on trimmed means (10%) and subsequent posthoc tests. FIGS. 5E-L: qPCR of BTBR brains after 5AV and taurine administration. Results are aggregated from 2 independent experiments. Hypothesis on differences in means were tested by ANOVA on trimmed means (10%) and subsequent posthoc tests. FIGS. 5M-V: series of graphs illustrating E18 B6 feeding 5AV and Taurine targeted metabolomics. […] In FIGS. 9A-K, mice were orally administered 10 mM Taurine or 5AV in drinking water starting 3-4 weeks of age mating, and throughout their lifetime. Offspring were tested by marble burying, direct social interaction, and open field tests, and compared to untreated vehicle controls. Results are aggregated from 2 independent experiments. NControl=20, […]=18, NTaurine=20. Bar plots denote mean and S.E.M. hypothesis on differences means were tested by ANOVA on trimmed means (10%) and subsequent posthoc tests. FIGS. 9L-Q illustrate basal properties of L5 pyramidal neurons in the mPFC. […] Taurine was orally administered to BTBR mice, a validated mouse model for ASD (McFarlane et al., 2008), from conception through adulthood to capture both prenatal and postnatal neurodevelopmental periods. […] It is will appreciated that the blood-brain barrier comprises endothelial cells, and selectively permits the movement of substances between circulating blood and the brain, for example permitting some molecules to pass from the blood to the brain, while preventing other molecules from passing from the blood to the brain. As such, it will be appreciated that at a given stage of development, some molecules may readily pass through the blood brain barrier, while others may not."}, "GABA receptor": {"system": "GABA receptor", "details": "literature statement; cited from earlier work"}, "BTBR mice [3]": {"system": "BTBR mice", "test": "Direct social interaction (DSI) test, BTBR mice given metabolites", "format": "in vivo, mouse", "details": "BTBR offspring; 10 mM in drinking water before mating and throughout lifetime (prenatal administration); vs untreated vehicle controls", "protocol": "FIGS. 5A-D are a series of drawings illustrating that differential metabolites impact ASD-relevant behaviors in SPF mice in accordance with some embodiments herein. FIG. 5A: The abundance of select metabolites in the offspring microbiome is correlated with behavior of male offspring. Spearman correlation between the microbiome and mouse behavior, by donor (See FIGS. 1A-0). […] Color scale denotes Spearman ρ. […] Groups of mice were orally administered 10 mM Taurine or 5AV in drinking water before mating, and throughout their lifetime. Offspring were tested by marble burying, direct social interaction, and open field tests, and compared to untreated vehicle controls. […] Social Behavior (SI)-direct social interaction (DSI) test-As a more sensitive measure for sociability, the direct social interaction test was also used, where a mouse is allowed to interact with a stimulus mouse while the interaction is being recorded. Each mouse was introduced to a fresh empty cage and allowed to habituate for 10 minutes; grooming behavior was scored for the last five minutes of this period. […] A blinded observer scored videos for any social approach, aggression, or grooming behavior […] using the ETHOM software (Shih and Mok, 2000). […] As such, it will be appreciated that at a given stage of development, some molecules may readily pass through the blood brain barrier, while others may not."}}, "note": "Entries after “also recorded” stand apart in the source; their conditions may differ.", "data": [{"smiles": "NCCS(=O)(=O)O", "note": "[taurine]", "values": [{"measurement": "other effects on neuron activity (mIPSCs, excitability; FIGS. 8B-E)", "setting": "[1]", "result": "not otherwise observed"}, {"measurement": "ASD-related behaviors, administration post weaning", "setting": "BTBR mice [2]", "result": "did not rescue behavioral alterations; also recorded: did not have these effects"}, {"measurement": "ASD-related behaviors, administration post weaning", "setting": "BTBR mice [2]; listed as Taurine", "result": "no effects on ASD-related behaviors"}, {"measurement": "ASD-related behaviors / symptoms, prenatal administration", "setting": "BTBR mice [2]", "result": "significant improvement in ASD-related behaviors; also recorded: reduces and/or prevents symptoms of ASD"}, {"measurement": "ASD-related behaviors / symptoms, prenatal administration", "setting": "BTBR mice [2]; listed as Taurine", "result": "ameliorate ASD-related behavioral deficits"}, {"measurement": "GABA receptor agonism", "setting": "GABA receptor", "result": "weak GABA agonist"}, {"measurement": "sociability / social duration (direct social interaction)", "setting": "BTBR mice [3]", "result": "trend toward increasing social duration in all mice; also recorded: increases sociability"}]}, {"smiles": "NCCCCC(=O)O", "note": "[5AV, 5-Aminovaleric acid]", "values": [{"measurement": "mEPSC amplitude", "setting": "[1]", "result": "induced a decrease in mEPSC amplitude, it was not statistically significant"}, {"measurement": "other effects on neuron activity (mIPSCs, excitability; FIGS. 8B-E)", "setting": "[1]", "result": "not otherwise observed"}, {"measurement": "ASD-related behaviors, administration post weaning", "setting": "BTBR mice [2]", "result": "did not rescue behavioral alterations; also recorded: no effects on ASD-related behaviors; also recorded: did not have these effects"}, {"measurement": "ASD-related behaviors / symptoms, prenatal administration", "setting": "BTBR mice [2]", "result": "significant improvement in ASD-related behaviors; also recorded: ameliorate ASD-related behavioral deficits; also recorded: reduces and/or prevents symptoms of ASD"}, {"measurement": "GABA receptor agonism", "setting": "GABA receptor", "result": "weak GABA receptor agonist"}, {"measurement": "sociability / social duration (direct social interaction)", "setting": "BTBR mice [3]", "result": "increases sociability"}]}]}
